Data set [1] has as its system presynaptic α-adrenoceptors. Put plainly: Effect on presynaptic α-adrenoceptors: inhibition of electrically triggered tachycardia in the spinal rat. It counts as in vivo. As to conditions: dosage which inhibits electrically induced tachycardia by 50%, i.v. An excerpt: 2. Effect on presynaptic α-adrenoceptors: Inhibition of electrically triggered tachycardia Method: At the adrenergic nerve ending there is an autoregulating system for the relase of noradrenaline. The stimulation of presynaptic α-adrenoreceptors has an inhibiting effect on the release of noradrenaline and thus restricts adrenergic neurotransmission. Accordingly, if these "feedback receptors" are stimulated, the effect of a given adrenergic stimulation on the responding organ can be attenuated. In the electrically stimulated spinal rat, the tachycardia induced electrically in the heart is attenuated by substances with a presynaptic α-mimetic activity. Description of the test: Male rats weighing from 350 to 400 g were anesthetized with pentobarbital (50 mg/kg i.p.), vagotomized, treated with atropine (1 mg/kg s.c.) and fitted with a tracheal cannula. After enucleation of one eye, the orbits were pierced, the brain was destroyed, and a metal rod was pushed through the vertebral canal. The animals were artificially ventilated and pre-treated with gallamine (4 mg/kg i.v.). The metal rod used was 2.5 mm in diameter and was insulated (stove-enamelled). […] The blood pressure was measured at an A. carotis by means of an electromechanical pressure transducer. The pulse wave triggered a tachograph which continuously recorded the heart rate. Both signals were recorded on a multi-channel recorder.

Data set [2] relates to intact anesthetized rat. In words: Effect on blood pressure and heart rate in the intact anesthetized rat after intravenous injection. To be noted: 3 mg/kg i.v. It counts as in vivo. How it is done:
1. Effect on blood pressure and heart rate Method: Changes in circulation after intravenous injection of the test substance were recorded in the intact anesthetized rat. Male rats weighing 200 g were anesthetized with pentobarbital (50 mg/kg i.p.). The animals breathed spontaneously through a tracheal cannula secured in position. The blood pressure was measured at an A. carotis using an electromechanical pressure transducer; the pulse wave triggered a tachograph which recorded the heart rate continuously. Both parameters were recorded on the polygraph. The test substance was injected into a V. jugularis through a catheter. The test substances, when administered at a dosage of 3 mg/kg i.v., produced a brief initial increase in blood pressure followed by a longer-lasting reduction in pressure.

The test system of data set [3] is postsynaptic α-adrenoceptors. Put plainly: Effect on postsynaptic α-adrenoceptors: increase in blood pressure in the spinal rat. It counts as in vivo. To be noted: dosage which increased arterial blood pressure by 30 mmHg, i.v. The protocol:
3. Effect on postsynaptic α-adrenoceptors: Increase in blood pressure in the spinal rat Method: The increase in blood pressure occurring after the stimulation of postsynaptic α-adrenoreceptors is measured in the spinal rat. Description of test: Male rats weighing from 200 to 250 g were anesthetized (1.2 g/kg of urethane i.p., 1 mg/kg of atropine s.c.). Then the central canal of the spinal cord was opened up. The spinal cord was severed at C1, and the medulla oblongata and the brain were destroyed with a metal probe. The animals were artificially ventilated; a polyethylene catheter was secured in a jugular vein, and the blood pressure was recorded from an A. carotis by means of a Statham element on a Grass polygraph. The dosage (D30) which increased the arterial blood pressure by 30 mmHg was determined.

The nature of data set [4]: Acute toxicity in mice after oral or intravenous administration. As to conditions: mouse, in vivo, observation period 14 days. How it is done: The acute toxicity was determined in mice after oral or intravenous administration (observation period: 14 days): […]
Data set [5] concerns intact anesthetized rat. In words: Effect on blood pressure and heart rate in the intact anesthetized rat after intravenous injection. It counts as in vivo. As to conditions: 1.5 mg/kg i.v.

These results are taken from US4575504A, “Thienothiazole derivatives” (Dr. Karl Thomae GmbH, priority 1982, dated 1986).

Counter-ions that a name gives are not always drawn.

As for `CCN1CCc2sc3nc(N)sc3c2CC1.Cl.Cl` [A, 7-ethyl-2-amino-6,7,8,9-tetrahydro-5H-thiazolo[4',5':5,4]thieno[2,3-d]azepine dihydrochloride], the “Inhibition of electrically induced tachycardia, D50” value in data set [1] came out at 290 μg/kg i.v. Moreover, in data set [2], the “Blood pressure, depressor phase (maximum value)” value (shortened to “Blood pressure, depressor phase”) is on record as -18 mm Hg; the “Blood pressure, pressor phase (maximum value)” value (“Blood pressure, pressor phase” for short) is “+52 mm Hg”; the “Lowering of heart rate (maximum value)” value is recorded as -90 beats/minute. In data set [3], the “Blood pressure-increasing activity, D30” value is 145 μg/kg i.v. Further, the median lethal dose (LD50) at 336 h in data set [4] (intravenous) was 34 mg/kg. Also, the LD50 at 336 h in data set [4] (oral) came to 320 mg/kg.
Consider `Nc1nc2sc3c(c2s1)CCN(Cc1ccccc1)CC3` [B, 2-amino-7-benzyl-6,7,8,9-tetrahydro-5H-thiazolo[4',5':5,4]thieno[2,3d]azepine], for which, in data set [2], the “Blood pressure, depressor phase” value is recorded as -25 mm Hg and the “Lowering of heart rate (maximum value)” value is -95 beats/minute.
On to `C=CCN1CCc2sc3nc(N)sc3c2CC1.Cl.Cl` [C, 7-allyl-2-amino-6,7,8,9-tetrahydro-5H-thiazolo[4',5':5,4]thieno[2,3-d]azepine dihydrochloride], for which, in data set [2], the “Blood pressure, depressor phase” value is -15 mm Hg; the “Blood pressure, pressor phase” value is recorded as “+17 mm Hg”; the “Lowering of heart rate (maximum value)” value is recorded as -150 beats/minute.
Turning to `CC(C)N1CCc2sc3nc(N)sc3c2CC1.Cl.Cl` [Compound D, 2-amino-6,7,8,9-tetrahydro-7-isopropyl-5H-thiazolo[4',5':5,4]thieno[2,3-d]azepine dihydrochloride], in data set [2], the “Blood pressure, depressor phase” value was -20 mm Hg; the “Blood pressure, pressor phase” value is on record as “+23 mm Hg”; the “Lowering of heart rate (maximum value)” value was -78 beats/minute.
In the same order, the values of `CCN1CCc2c(sc3nc(N)sc23)C1` [E, 6-ethyl-2-amino-5,6,7,8-tetrahydro-thiazolo[4',5':5,4]thieno[2,3c]pyridine dihydrochloride] are -29 mm Hg, “+30 mm Hg” and -108 beats/minute.
With `CCCN1CCc2c(sc3nc(N)sc23)C1.Cl.Cl` [F, 2-amino-5,6,7,8-tetrahydro-6-propyl-thiazolo[4',5':5,4]thieno[2,3-c]pyridine dihydrochloride], in data set [2], the “Blood pressure, depressor phase” value was -12 mm Hg; the “Blood pressure, pressor phase” value is listed as “+16 mm Hg”; the “Lowering of heart rate (maximum value)” value is reported as -65 beats/minute. For the same compound, in data set [4] (oral), the LD50 at 336 h is over 300 mg/kg.
For `CN1CCc2c(sc3nc(N)sc23)C1.Cl.Cl` [G, 2-amino-5,6,7,8-tetrahydro-6-methyl-thiazolo[4',5':5,4]thieno[2,3-c]pyridine dihydrochloride], in data set [2], the “Blood pressure, depressor phase” value is recorded as -30 mm Hg; the “Blood pressure, pressor phase” value is listed as “+46 mm Hg”; the “Lowering of heart rate (maximum value)” value is recorded as -95 beats/minute.
Take `Cl.Cl.Nc1nc2sc3c(c2s1)CCNCC3` [H, 2-Amino-6,7,8,9-tetrahydro-5H-thiazolo[4',5':5,4]thieno[2,3-d]azepine dihydrochloride]: in data set [5], the “Blood pressure, depressor phase” value was -34 mm Hg; the “Blood pressure, pressor phase” value is recorded as “+38 mm Hg”; the “Lowering of heart rate (maximum value)” value is reported as -100 beats/minute. Further, the “Blood pressure-increasing activity, D30” value in data set [3] is 0.36 mg/kg i.v.

The term LD50 denotes the dose at which mortality reaches 50%.
